Structures are written as SMILES. Read-outs that look alike come from different tables or passages of the source.

Experiment [1] concerns Th17 cells. The experiment is described as follows: Mouse Th17 cell differentiation test (IL-17A by ELISA). The format is cell-based. The settings on record: 96 h, 10 μM of test compound, IL-17A in culture supernatant, 4 days, read-out: inhibitory rate(%). As for the experimental part: Mouse Th17 Cell Differentiation Test
CD4 positive naive T cells were collected from the spleen cells of Balb/c mice (female, 8-11w) using CD4+CD62L+ T Cell Isolation kit II (Miltenyi Biotec). The CD4 positive naive T cells was plated in a 96 well plate (3×10^5 cells/well), and stimulated (37° C. for culture) with anti-mouse CD3ε antibody (10 μg/mL, solid phase) and anti-CD28 antibody (5 μg/mL) for 4 days in the presence of anti-IFN-γ antibody, anti-IL-4 antibody, anti-IL-2 antibody, IL-6, TGF-β and IL-23 to differentiate into Th17 cells. The compound was dissolved in DMSO and then added thereto. The cells were cultured under these conditions for 4 days, and differentiation of the Th17 cells was evaluated by using the concentration of IL-17A, which was measured by ELISA, in the culture supernatant obtained by centrifugation.
(In general: ELISA stands for enzyme-linked immunosorbent assay.)

Experiment [2] deals with human PBMC. The experiment is described as follows: IL17 production test in human PBMC. Particulars: 72 h, 10 μM of test compound, IL-17A in culture supernatant, 3 days, read-out: inhibitory rate (%). The format is cell-based. On the procedure: IL17 Production Test in Human PBMC
Peripheral blood mononuclear cells (PBMC) collected from human peripheral blood by a density gradient centrifugation method were stimulated by Dynabeads (registered trade mark; anti-CD3/CD28 antibody) and cultured at 37° C. for 3 days. The test compound was dissolved in DMSO and then added thereto. After culture for 3 days under such conditions, the concentration of IL-17A in the culture supernatant obtained by centrifugation was measured by ELISA to evaluate the effect of the compound on IL-17 production.

The target in experiment [3] is T1, RORγt (Homo sapiens, UniProt P51449).
T1 sequence (P51449 1-497 isoform P51449-2): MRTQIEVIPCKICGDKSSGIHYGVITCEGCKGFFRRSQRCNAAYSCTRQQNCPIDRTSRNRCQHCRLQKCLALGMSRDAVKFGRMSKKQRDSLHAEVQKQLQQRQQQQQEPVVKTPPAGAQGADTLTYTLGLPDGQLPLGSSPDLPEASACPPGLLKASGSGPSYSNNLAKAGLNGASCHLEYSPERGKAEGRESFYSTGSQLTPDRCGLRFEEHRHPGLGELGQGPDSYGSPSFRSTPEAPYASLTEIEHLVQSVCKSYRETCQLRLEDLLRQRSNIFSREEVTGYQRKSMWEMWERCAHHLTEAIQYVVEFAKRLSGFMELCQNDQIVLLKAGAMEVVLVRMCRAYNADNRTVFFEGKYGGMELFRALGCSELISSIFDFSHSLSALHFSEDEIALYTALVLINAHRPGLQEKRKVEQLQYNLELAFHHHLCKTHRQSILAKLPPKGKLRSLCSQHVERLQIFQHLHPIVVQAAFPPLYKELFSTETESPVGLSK
The experiment is described as follows: RORγt binding test (TR-FRET, fluorescent-labeled cholesterol). Particulars: binding inhibitory rate of fluorescent-labeled cholesterol to RORγt at test compound 1 μM. As for the experimental part: The binding activity of the test compound to RORγt was measured by a time resolved fluorescence resonance energy transfer method (TR-FRET) utilizing histidine-tagged RORγt, fluorescent-labeled cholesterol (BODIPY-cholesterol, AVIVA) and terbium-labeled anti-histidine tag antibody (Invitrogen). First, a test compound diluted with an assay buffer (20 mM Tris-HCl (pH 7.5), 100 mM NaCl, 1 mM DTT, 0.1% BSA) was added to a 384 well plate by 3 μL each. Then, RORγt diluted with an assay buffer to 240 nM was added by 3 μL each, after which fluorescent-labeled cholesterol diluted with the assay buffer to 12 μM was added by 3 μL each, and the mixture was stood at room temperature for 20 min. Thereafter, a terbium-labeled anti-histidine tag antibody diluted with the assay buffer to 8 nM was added by 3 μL each. The mixture was stood at room temperature for 20 min, and fluorescence intensity (excitation wavelength 320 nm, fluorescence wavelength 520 nm, delay time 100 microseconds) was measured by Envision (PerkinElmer).
On the technique in general: TR-FRET usually uses a lanthanide donor and a delayed reading to cut background.

Experiment [4] deals with T1, RORγt. The experiment is described as follows: Cofactor recruitment test (Alpha Screen, biotinylated SRC-1 peptide). The experiment is classed as biochemical. The settings on record: test compound 1 μM; read-out: signal value inhibitory rate (%). On the procedure:
Cofactor Recruitment Test
Cofactor recruitment test was performed by Alpha Screen (Histidine Detection Kit, PerkinElmer) method. First, a test compound diluted with an assay buffer (50 mM Tris-HCl (pH 7.5), 50 mM KCl, 1 mM DTT, 0.1% BSA) was added to a 384 well plate by 5 μL each. […] The mixture was stood in a dark place for 1 hr, and the signal value was measured by Envision (PerkinElmer).

The target in experiment [5] is T1, RORγt. In words: Jurkat reporter test (IL-17 ROR response element luciferase). The format is cell-based. Also on record: expressed in transfected cells; host or cells: Jurkat cells. The settings on record: test compound 3 μM, Jurkat cells, read-out: luminescence level inhibitory rate (%). On the procedure: The Jurkat cells used for the reporter test were cultured in a culture medium (RPMI (Invitrogen), 10% FCS (AusGeneX), 100 U/mL penicillin, 100 μg/mL streptomycin). On the day of the test, 4×10^7 cells were recovered by a centrifugal operation (1000 rpm, 5 min.) and suspended in PBS (phosphate buffered saline) (Invitrogen). Thereafter, the cells were recovered again by a centrifugal operation, and suspended in 2 mL of R buffer (NEON transfection kit, Invitrogen). […] Gene transfer was performed by Electroporation apparatus (NEON, Invitrogen) under the conditions of pulse voltage 1350 V, interval 10 milliseconds, number of times 3. The cells after gene transfer were suspended in 40 mL of a reaction medium (RPMI, 10% Lipid reduced FCS (HyClone), 10 mM HEPES (pH 7.5), 100 U/mL penicillin, 100 μg/mL streptomycin, 5 μM lovastatin), and plated in a 96 well plate by 90 μL each. A test compound diluted with the reaction medium was added by 10 μL each, and the cells were cultured overnight in an incubator. Bright-Glo (Promega) was added by 100 μL each, and the mixture was stirred at room temperature for 10 min, and the luminescence level was measured by Envision (PerkinElmer).

In the case of `CC(CC(=O)Nc1ccc(C#N)c(Cl)c1)CC(=O)Nc1ccc2c(c1)c(=O)n(CC1CC1)c(=O)n2CC1CC1` (centres unmarked) [Example 2, N-(1,3-bis(cyclopropylmethyl)-2,4-dioxo-1,2,3,4-tetrahydroquinazolin-6-yl)-N′-(3-chloro-4-cyanophenyl)-3-methylpentanediamide], the inhibition at 10 µM in experiment [1] was 97%; in experiment [2], 96%.
As for `CCn1c(=O)c2cc(C(=O)NCC(C)CC(=O)Nc3ccc(C#N)c(Cl)c3)ccc2n(CC)c1=O` (centres unmarked) [Example 4, N-(4-((3-chloro-4-cyanophenyl)amino)-2-methyl-4-oxobutyl)-1,3-diethyl-2,4-dioxo-1,2,3,4-tetrahydroquinazoline-6-carboxamide], the values for the inhibition at 1 µM in experiment [3] and in experiment [4] were 96.7% and 105%, respectively. Moreover, the inhibition at 10 µM in experiment [2] turned out to be 97%. In addition, in experiment [5] (Jurkat), the inhibition at 3 µM was 116%.
Regarding `CCC1Oc2cc(NC(=O)CC(C)CC(=O)Nc3ccc(C#N)c(Cl)c3)ccc2N(CC)C1=O` (centres unmarked) [Example 7, N-(3-chloro-4-cyanophenyl)-N′-(2,4-diethyl-3-oxo-3,4-dihydro-2H-1,4-benzoxazin-7-yl)-3-methylpentanediamide], the inhibition at 10 µM in experiment [2] worked out at 100%.
`CCN1C(=O)C(c2ccccc2)Oc2cc(NC(=O)CC(C)CC(=O)Nc3ccc(C#N)c(Cl)c3)ccc21` (centres unmarked) [Example 12, N-(3-chloro-4-cyanophenyl)-N′-(4-ethyl-3-oxo-2-phenyl-3,4-dihydro-2H-1,4-benzoxazin-7-yl)-3-methylpentanediamide]: the values for the inhibition at 1 µM in experiment [3] and in experiment [4] were 98.3% and 104%, respectively. Besides, the inhibition at 10 µM in experiment [1] and in experiment [2] was 97% in each case. Moreover, the inhibition at 3 µM in experiment [5] (Jurkat) stood at 120%.
On to `CCn1c(=O)c2cc(C(=O)NCC(CC(=O)Nc3ccc(C#N)c(Cl)c3)C(C)C)ccc2n(CC)c1=O` (centres unmarked) [Example 17, N-(4-((3-chloro-4-cyanophenyl)amino)-2-isopropyl-4-oxobutyl)-1,3-diethyl-2,4-dioxo-1,2,3,4-tetrahydroquinazoline-6-carboxamide], for which the inhibition at 1 µM was 101% in experiment [3] and 103% in experiment [4]. The inhibition at 10 µM in experiment [2] came to 84%. Moreover, in experiment [5] (Jurkat), the inhibition at 3 µM came out at 121%.
Turning to `CCn1c(=O)c2cc(NC(=O)CC(C)CNC(=O)c3ccc(C#N)c(Cl)c3)ccc2n(CC)c1=O` (centres unmarked) [Example 23, 3-chloro-4-cyano-N-(4-((1,3-diethyl-2,4-dioxo-1,2,3,4-tetrahydroquinazolin-6-yl)amino)-2-methyl-4-oxobutyl)benzamide], the inhibition at 1 µM in experiment [3] is 97.3%; in experiment [4], 104%. For the same compound, the inhibition at 10 µM in experiment [1] worked out at 94%. In experiment [5], the inhibition at 3 µM worked out at 115%.
In the case of `CC(CC(=O)Nc1ccc(C#N)c(Cl)c1)CC(=O)Nc1cc2c(=O)n(CC3CC3)c(=O)n(CC3CC3)c2cn1` (centres unmarked) [Example 113, N-(1,3-bis(cyclopropylmethyl)-2,4-dioxo-1,2,3,4-tetrahydropyrido[3,4-d]pyrimidin-6-yl)-N′-(3-chloro-4-cyanophenyl)-3-methylpentanediamide], the figures for the inhibition at 1 µM in experiment [3] and in experiment [4] were 103% and 102%, respectively. For the same compound, in experiment [5] (Jurkat), the inhibition at 3 µM was found to be 96.5%.
In the case of `CCn1c(=O)c2cc(NC(=O)CC(C)CC(=O)Nc3ccc(C#N)c(Cl)c3)ccc2n(C[Si](C)(C)C)c1=O` (centres unmarked) [Example 126, N-(3-chloro-4-cyanophenyl)-N′-(3-ethyl-2,4-dioxo-1-((trimethylsilyl)methyl)-1,2,3,4-tetrahydroquinazolin-6-yl)-3-methylpentanediamide], the inhibition at 1 µM stood at 103% in experiment [3] and 100% in experiment [4]. Also, the inhibition at 3 µM in experiment [5] (Jurkat) was determined as 102%.
For `CCn1c(=O)c2cc(NC(=O)CC(C)CC(=O)Nc3ccc(C#N)c(Cl)c3)cc(F)c2n(CC)c1=O` (centres unmarked) [Example 129, N-(3-chloro-4-cyanophenyl)-N′-(1,3-diethyl-8-fluoro-2,4-dioxo-1,2,3,4-tetrahydroquinazolin-6-yl)-3-methylpentanediamide] the same measures were 100%, 100% and 102%.
For the compound `CCn1c(=O)c2cc(NC(=O)CC(C)CC(=O)Nc3ccc(C#N)c(Cl)c3)c(F)cc2n(CC)c1=O` (centres unmarked) [Example 130, N-(3-chloro-4-cyanophenyl)-N′-(1,3-diethyl-7-fluoro-2,4-dioxo-1,2,3,4-tetrahydroquinazolin-6-yl)-3-methylpentanediamide], the inhibition at 1 µM in experiment [3] amounted to 101%; in experiment [4], 102%. The inhibition at 3 µM in experiment [5] (Jurkat) is 101%.
With `CCn1c(=O)n(CC2CC2)c(=O)c2cc(NC(=O)CC[C@@H](O)C(=O)Nc3ccc(C#N)c(Cl)c3)ccc21` [Example 138, (2R)—N^1-(3-chloro-4-cyanophenyl)-N^5-(3-(cyclopropylmethyl)-1-ethyl-2,4-dioxo-1,2,3,4-tetrahydroquinazolin-6-yl)-2-hydroxypentanediamide], the inhibition at 1 µM in experiment [3] was 104%; in experiment [4], 100%. For the same compound, the inhibition at 3 µM in experiment [5] (Jurkat) is 104%.
On to `CCn1c(=O)n(CC2CC2)c(=O)c2cc(NC(=O)CC[C@H](O)C(=O)Nc3ccc(C#N)c(Cl)c3)ccc21` [Example 139, (2S)—N^1-(3-chloro-4-cyanophenyl)-N^5-(3-(cyclopropylmethyl)-1-ethyl-2,4-dioxo-1,2,3,4-tetrahydroquinazolin-6-yl)-2-hydroxypentanediamide], for which the inhibition at 1 µM in experiment [3] and in experiment [4] was 102% each time. Moreover, the inhibition at 3 µM in experiment [5] (Jurkat) is 104%.
In the case of `CCn1c(=O)n(CC2CC2)c(=O)c2cc(NC(=O)[C@@H](O)CCC(=O)Nc3ccc(C#N)c(Cl)c3)ccc21` [Example 141, (2S)—N^5-(3-chloro-4-cyanophenyl)-N^1-(3-(cyclopropylmethyl)-1-ethyl-2,4-dioxo-1,2,3,4-tetrahydroquinazolin-6-yl)-2-hydroxypentanediamide], the inhibition at 1 µM in experiment [3] and in experiment [4] was 102% in each case. Moreover, the inhibition at 3 µM in experiment [5] (Jurkat) is 103%.
